From PubChem BioAssay AID1963962 (Molecular Pharmacology Branch, DTP, NCI, 2024)

Test system: 967376-340-R-J2-PDC multicell spheroid viability
Assay: Anticancer human tumor 967376-340-R-J2-PDC patient-derived colon adenocarcinoma cell line growth inhibition [PI3K]
Settings: for IC50: curve of first compound; for viability, T/C: stronger effect = lower value
From the text: Combinatorial screen of targeted agents with the PI3K inhibitors inavolisib, alpelisib, duvelisib, and copanlisib in multi-cell type tumor spheroids
A high-throughput screen of multi-cell type tumor spheroids was designed to identify active combinations of targeted small molecules and PI3K pathway inhibitors. Complex spheroids include a stromal component modeled by human endothelial cells (HUVEC) and fibroblasts modeled by human mesenchymal stem cells (MSCs). The concentration ranges selected for each drug and investigational agent were based upon clinically achievable concentrations if the clinical Cmax of the agent was known.
Compounds. The drugs and investigational agents: inavolisib (NSC800729), alpelisib (NSC765974), duvelisib (NSC772469), copanlisib (NSC816437), ipatasertib (NSC767898), afuresertib (NSC778305), talazoparib (NSC767125), sapanisertib (NSC764658), selumetinib (NSC741078), tovorafenib (DAY101, NSC766906), vemurafenib (NSC761431), ravoxertinib (NSC781343), sotorasib (NSC818433), MRTX1133 (NSC 836407), abemaciclib (NSC 768073), palbociclib (NSC758247), venetoclax (NSC 766270), SY5609 (NSC837396), enzalutamide (NSC755605), and darolutamide (NSC825331), were obtained from the National Cancer Institute (NCI) Developmental Therapeutics Program Chemical Repository. The FDA-approved anticancer drug set is available from the NCI Developmental Therapeutics Program. […] The stock solutions were prepared in dimethyl sulfoxide (DMSO, Sigma-Aldrich, St. Louis, MO, cat. D2650) at 800-fold the tested concentration and stored at -70 degrees C prior to their use. All drugs and investigational agents were tested over a range starting from a high concentration at or near the clinical Cmax and decreasing in half-log increments. If the clinical Cmax for an agent had not been determined, the highest concentration tested was 10 microM.
Cell Culture. All cells were maintained in an incubator at 37 degrees C and 5% CO2 with 95% humidity. The PDC lines were cultured according to standard operating procedures established by the NCI PDMR (https://pdmr.cancer.gov/sops/default.htm). All PDCs were thawed and cultured in Matrigel-coated flasks prepared with a working solution of 1X Ham's F-12 nutrient mix, without supplementation (Invitrogen, Waltham, MA, cat. 11765054), 100 U/mL penicillin-streptomycin (Invitrogen, cat. 15140122), and 2.5% Matrigel (Corning Inc., Corning, NY, cat. 354248) for the first three passages. The 354836-022-R-J1-PDC, 475296-252-R-J1-PDC, and 997726-040-R-J2-PDC lines were cultured in 6A media, which includes advanced DMEM/F-12 (Thermo Fisher Scientific, cat. 12634028), 10 mM HEPES (Thermo Fisher Scientific, cat. 15630080), 1X GlutaMAX supplement (Thermo Fisher Scientific, cat. 35050061), 0.1 mg/mL primocin (InvivoGen, San Diego, CA, cat. ant-pm-2), 10% defined fetal bovine serum, heat inactivated (HyClone Laboratories Inc., Logan, UT, cat. SH30070.03HI), 50% L-WRN conditioned media (ATCC, cat. CRL-3276), 1.25 mM N-Acetyl-L-cysteine (Sigma-Aldrich, cat. A9165), 10 mM nicotinamide (Sigma-Aldrich, cat. N0636), 1X B-27 supplement (Thermo Fisher Scientific, cat. 17504044), 1X N-2 supplement (Thermo Fisher Scientific, cat. 17502048), and 10 microM Y-27632 dihydrochloride (Tocris Bioscience, Bristol, United Kingdom, cat. 1254). The 624824-186-R-J2-PDC line was cultured in 6C/Colon 1B media, which includes all 6A media components plus 50 ng/mL human EGF recombinant protein (Thermo Fisher Scientific, cat. PHG0311). […]

[1] = second compound 0.00316 µM, first compound 0.0316 µM
[2] = second compound 0.00316 µM, first compound 0.1 µM
[3] = second compound 0.01 µM, first compound 0.0316 µM
[4] = second compound 0.01 µM, first compound 0.1 µM
[5] = second compound 0.0316 µM, first compound 0.0316 µM
[6] = second compound 0.0316 µM, first compound 0.1 µM
[7] = second compound 0.1 µM, first compound 0.0316 µM
[8] = second compound 0.1 µM, first compound 0.1 µM
[9] = second compound 0.316 µM, first compound 0.0316 µM
[10] = second compound 0.316 µM, first compound 0.1 µM
[11] = second compound 1 µM, first compound 0.0316 µM
[12] = second compound 1 µM, first compound 0.1 µM
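Also: spheroids exposed to agents for 7 days before read-out.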
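For viability, T/C in this document: luminescence used as surrogate of cell viability.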

Q: How did the IC50 (second compound 0.00316 µM) turn out when `CC(C)n1nc(-c2ccc3oc(N)nc3c2)c2c(N)ncnc21` + CC(Nc1ccc2c(c1)OCCn1cc(N3C(=O)OCC3C(F)F)nc1-2)C(N)=O was run?
A: The IC50 was over 100 nM.

Q: And the IC50 (second compound 0.01 µM)?
A: The IC50 was over 100 nM.

Q: What about the IC50 (second compound 0.0316 µM) of the same compound?
A: Its IC50 is 71.9 nM.

Q: What about the IC50 (second compound 0.1 µM) of the same compound?
A: The IC50 was 66.5 nM.

Q: And the IC50 (second compound 0.316 µM)?
A: The IC50 was 20.7 nM.

Q: And the IC50 (second compound 1 µM)?
A: Its IC50 is 36.9 nM.

Q: What about the viability, T/C (second compound 0.00316 µM, first compound 0.000316 µM) of the same compound?
A: The viability, T/C was 82.3%.

Q: What about the viability, T/C (second compound 0.00316 µM, first compound 0.001 µM) of the same compound?
A: The viability, T/C was 69.7%.

Q: What about the viability, T/C (second compound 0.00316 µM, first compound 0.00316 µM) of the same compound?
A: Its viability, T/C is 69.4%.

Q: What about the viability, T/C (second compound 0.00316 µM, first compound 0.01 µM) of the same compound?
A: The viability, T/C was 76.4%.

Q: What about the viability, T/C [1] of the same compound?
A: The viability, T/C was 73.1%.

Q: And the viability, T/C [2]?
A: The viability, T/C was 51.9%.

Q: What about the viability, T/C (second compound 0.01 µM, first compound 0.000316 µM) of the same compound?
A: The viability, T/C was 106%.

Q: And the viability, T/C (second compound 0.01 µM, first compound 0.001 µM)?
A: The viability, T/C was 90.1%.

Q: What about the viability, T/C (second compound 0.01 µM, first compound 0.00316 µM) of the same compound?
A: Its viability, T/C is 67.3%.

Q: What about the viability, T/C (second compound 0.01 µM, first compound 0.01 µM) of the same compound?
A: Its viability, T/C is 68.7%.

Q: And the viability, T/C [3]?
A: Its viability, T/C is 68.1%.

Q: And the viability, T/C [4]?
A: The viability, T/C was 43.3%.

Q: What about the viability, T/C (second compound 0.0316 µM, first compound 0.000316 µM) of the same compound?
A: Its viability, T/C is 81.1%.

Q: What about the viability, T/C (second compound 0.0316 µM, first compound 0.001 µM) of the same compound?
A: The viability, T/C was 87%.

Q: What about the viability, T/C (second compound 0.0316 µM, first compound 0.00316 µM) of the same compound?
A: Its viability, T/C is 65.4%.

Q: And the viability, T/C (second compound 0.0316 µM, first compound 0.01 µM)?
A: Its viability, T/C is 74.4%.

Q: What about the viability, T/C [5] of the same compound?
A: The viability, T/C was 60.5%.

Q: And the viability, T/C [6]?
A: Its viability, T/C is 45.2%.

Q: What about the viability, T/C (second compound 0.1 µM, first compound 0.000316 µM) of the same compound?
A: Its viability, T/C is 67.3%.

Q: What about the viability, T/C (second compound 0.1 µM, first compound 0.001 µM) of the same compound?
A: Its viability, T/C is 79.8%.

Q: And the viability, T/C (second compound 0.1 µM, first compound 0.00316 µM)?
A: The viability, T/C was 91.5%.

Q: And the viability, T/C (second compound 0.1 µM, first compound 0.01 µM)?
A: The viability, T/C was 69.5%.

Q: And the viability, T/C [7]?
A: The viability, T/C was 56.9%.

Q: What about the viability, T/C [8] of the same compound?
A: Its viability, T/C is 46.3%.

Q: What about the viability, T/C (second compound 0.316 µM, first compound 0.000316 µM) of the same compound?
A: Its viability, T/C is 57.7%.

Q: What about the viability, T/C (second compound 0.316 µM, first compound 0.001 µM) of the same compound?
A: Its viability, T/C is 61.9%.

Q: What about the viability, T/C (second compound 0.316 µM, first compound 0.00316 µM) of the same compound?
A: Its viability, T/C is 54.6%.

Q: And the viability, T/C (second compound 0.316 µM, first compound 0.01 µM)?
A: Its viability, T/C is 64.7%.

Q: What about the viability, T/C [9] of the same compound?
A: The viability, T/C was 44.3%.

Q: What about the viability, T/C [10] of the same compound?
A: Its viability, T/C is 33.1%.

Q: And the viability, T/C (second compound 1 µM, first compound 0.000316 µM)?
A: The viability, T/C was 53.9%.

Q: What about the viability, T/C (second compound 1 µM, first compound 0.001 µM) of the same compound?
A: The viability, T/C was 54.8%.

Q: And the viability, T/C (second compound 1 µM, first compound 0.00316 µM)?
A: Its viability, T/C is 63.8%.

Q: And the viability, T/C (second compound 1 µM, first compound 0.01 µM)?
A: The viability, T/C was 47.5%.

Q: What about the viability, T/C [11] of the same compound?
A: The viability, T/C was 54%.

Q: What about the viability, T/C [12] of the same compound?
A: The viability, T/C was 38.4%.

Q: Which results are given for `CC1(C)CCC(CN2CCN(c3ccc(C(=O)NS(=O)(=O)c4ccc(NCC5CCOCC5)c([N+](=O)[O-])c4)c(Oc4cnc5[nH]ccc5c4)c3)CC2)=C(c2ccc(Cl)cc2)C1` + CC(Nc1ccc2c(c1)OCCn1cc(N3C(=O)OCC3C(F)F)nc1-2)C(N)=O?
A: IC50 (second compound 0.00316 µM): > 10000 nM; IC50 (second compound 0.01 µM): > 10000 nM; IC50 (second compound 0.0316 µM): > 10000 nM; IC50 (second compound 0.1 µM): > 10000 nM; IC50 (second compound 0.316 µM): 7820 nM; IC50 (second compound 1 µM): 4850 nM; viability, T/C [1]: 106%; viability, T/C [2]: 67.9%; viability, T/C (second compound 0.00316 µM, first compound 0.316 µM): 97.2%; viability, T/C (second compound 0.00316 µM, first compound 1 µM): 98%; viability, T/C (second compound 0.00316 µM, first compound 3.16 µM): 102%; viability, T/C (second compound 0.00316 µM, first compound 10 µM): 61.1%; viability, T/C [3]: 107%; viability, T/C [4]: 75.7%; viability, T/C (second compound 0.01 µM, first compound 0.316 µM): 79.9%; viability, T/C (second compound 0.01 µM, first compound 1 µM): 78.6%; viability, T/C (second compound 0.01 µM, first compound 3.16 µM): 81.2%; viability, T/C (second compound 0.01 µM, first compound 10 µM): 57.3%; viability, T/C [5]: 67.3%; viability, T/C [6]: 86.5%; viability, T/C (second compound 0.0316 µM, first compound 0.316 µM): 82.2%; viability, T/C (second compound 0.0316 µM, first compound 1 µM): 88.9%; viability, T/C (second compound 0.0316 µM, first compound 3.16 µM): 75.9%; viability, T/C (second compound 0.0316 µM, first compound 10 µM): 81.5%; viability, T/C [7]: 70.6%; viability, T/C [8]: 80.5%; viability, T/C (second compound 0.1 µM, first compound 0.316 µM): 79.1%; viability, T/C (second compound 0.1 µM, first compound 1 µM): 84.7%; viability, T/C (second compound 0.1 µM, first compound 3.16 µM): 95.7%; viability, T/C (second compound 0.1 µM, first compound 10 µM): 58.8%; viability, T/C [9]: 68.3%; viability, T/C [10]: 81.5%; viability, T/C (second compound 0.316 µM, first compound 0.316 µM): 58.2%; viability, T/C (second compound 0.316 µM, first compound 1 µM): 76.2%; viability, T/C (second compound 0.316 µM, first compound 3.16 µM): 71.2%; viability, T/C (second compound 0.316 µM, first compound 10 µM): 44.5%; viability, T/C [11]: 56.7%; viability, T/C [12]: 48.1%; viability, T/C (second compound 1 µM, first compound 0.316 µM): 57.2%; viability, T/C (second compound 1 µM, first compound 1 µM): 49.9%; viability, T/C (second compound 1 µM, first compound 3.16 µM): 67.8%; viability, T/C (second compound 1 µM, first compound 10 µM): 36.2%
